# Values quoted from earlier work as cited in patent US20070232672A1, “Pharmaceutical Composition And Method For Treating Neurodegenerative Disorders” (Myriad Genetics, Incorporated, priority 2004, published 2007).
# Where two headings read alike, the source gives them in different places.
# Assays:
# Aβ42 [1] = settings: transgenic mouse model, Koo et al.
# Aβ42 [2] = settings: CHO cells, Koo et al.
# [3] = 50 mg and 100 mg doses, human subjects, Lotsch et al.
# [4] = for efficacy for treating AD: clinical trial (Aisen et al., Reines et al.), rofecoxib at 25 mg daily
# [5] = patients having mild cognitive impairment
# [6] = Scali et al.
structure (smiles),measurement,setting,value
C[C@@H](C(=O)O)c1ccc(-c2ccccc2)c(F)c1 [(R)-2-(2-fluoro-4-biphenylyl)propionic acid],inhibition of COX activity,COX,negligibly inhibits COX activity
same,Aβ42 lowering,Aβ42 [1],lower Aβ42
same,Aβ42 lowering,Aβ42 [2],lower Aβ42
same,analgesic effect,[3],produced an analgesic effect
COc1ccc2cc([C@H](C)C(=O)O)ccc2c1 [Naproxen],efficacy for treating AD,[4],failed to show efficacy
CC12CC3CC(C)(C1)CC(N)(C3)C2 [memantine],efficacy in treating mild-to-moderate AD,[4]; mild-to-moderate AD,showed efficacy
CS(=O)(=O)c1ccc(C2=C(c3ccccc3)C(=O)OC2)cc1 [rofecoxib],efficacy for treating AD,[4],failed to show efficacy
same,prevention of the development of Alzheimer's disease,[5]; large prevention trial,failed to prevent the development of Alzheimer's disease
same,patients who developed AD,[5]; placebo 4.5%,6.4%
same,neuroprotection,[6],provides neuroprotection
